Data: patent publication US12116597B2, “Autophagy as a therapeutic target for intracranial aneurysm” (THE BOARD OF REGENTS OF THE UNIVERSITY OF TEXAS SYSTEM, priority 2022, dated 2024)

System: Thsd1-deficient zebrafish
Test: Intracranial hemorrhage incidence in thsd1-MO zebrafish embryos treated with autophagy inhibitors
Assay type: in vivo
Conditions: thsd1-MO injected zebrafish embryos; added to embryo water at 1 dpf for 24 hours; 3-MA 10 mM, wortmannin 50 nM, verteporfin 1 uM; FIG. 11
Experimental: Anti-sense morpholinos against thsd1, atg5 or talin was injected into one-cell stage zebrafish singly or in combination to silence the gene accordingly. At day 2 to day 3, embryos will be checked under regular optical microscope. Embryos with intracranial hemorrhages will be counted and imaged by Olympus microscope.
To test the hypothesis that autophagy inhibition could treat intracranial hemorrhage in-vivo 80-120 different zebrafish animals genetically engineered as described in Table 5 were treated with three distinct autophagy inhibitors, namely, 3-MA, wortmannin, or verteporfin. Control (DMSO) or other known autophagy inhibitors including 3-MA (10 mM), wortmannin (50 nM), and verteporfin (1 uM) were added to embryo water at 1 dpf for 24 hours. All embryos were injected by thsd1-MO and the hemorrhagic incidence was counted under microscope. For each injection, around 80-120 embryos were injected. *p<0.05, **p<0.01, n.s. means not significant.
After significant effort in contacting individuals and sequencing the families shown in FIG. 1A, the present disclosure first identified THSD1 as a gene associated with sub-cranial hemorrhage. In specific cases, a single codon substitution was identified as responsible for the phenotype L5F, R460W, E466G, G600E, P639L, T653I, or S775P. […]

Compound | intracranial hemorrhage (hemorrhagic incidence counted under microscope)
Cn1cnc(N)c2ncnc1-2 [3-MA, 3-Methyladenine] | rescued intracranial hemorrhage
Verteporfin | rescued intracranial hemorrhage
